Here are results for 1 substance from patent US20080311589A1, “METHOD OF HIGH-THROUGHPUT SCREENING OF MOLECULES AND COMPOUNDS FOR THEIR EFFECTS ON BIOLOGICAL AND CHEMICAL PROCESSES” (priority 1999, published 2008).

Experiment [1] deals with phosphorylated nucleolin. The experiment in a line: anti-phosphonucleolin (TG-3) cytoblot screen. Format: cell-based, human. The protocol:
A detection assay providing an indirect measure of the mitotic index of a population of cells was used to identify compounds that act as cell cycle inhibitors. By measuring the level of phosphorylation of a chromatin-associated protein using the anti-phosphonucleolin (TG-3) cytoblot (Stockwell et al. 1999), nucleolin the mitotic index (i.e., the number of cell in mitosis) was assessed. In brief, the library compounds were dissolved in DMSO (5 mg/ml) and pin-transferred from 384-well plates (Library plates #1-51) for a final concentration 5-10 ug/ml using a 384-polypropylene pin array (Genetix) into 384-well screening plates (Nunc) seeded with 4,000 A549 human lung carcinoma cells (ATCC) in DMEM+ and incubated for 22 hours at 37° C. with 5% CO2. Compounds from library plates #1-24 were pooled at two compounds per well, while compounds from library plates #25-51 were tested singly. […] The reactivity of the anti-phosphonucleolin antibody was measured using enhanced chemiluminescent detection (Amersham) after incubation of each well with a horseradish peroxidase-coupled anti-mouse IgM secondary antibody (Sigma) and addition of luminol. The relative luminescence produced from each well was measured on an automatic plate reader (LJL Analyst). […]

The target of experiment [2] is T1, recombinant Eg5 (Xenopus laevis, UniProt P28025).
T1 sequence (P28025 1-1067): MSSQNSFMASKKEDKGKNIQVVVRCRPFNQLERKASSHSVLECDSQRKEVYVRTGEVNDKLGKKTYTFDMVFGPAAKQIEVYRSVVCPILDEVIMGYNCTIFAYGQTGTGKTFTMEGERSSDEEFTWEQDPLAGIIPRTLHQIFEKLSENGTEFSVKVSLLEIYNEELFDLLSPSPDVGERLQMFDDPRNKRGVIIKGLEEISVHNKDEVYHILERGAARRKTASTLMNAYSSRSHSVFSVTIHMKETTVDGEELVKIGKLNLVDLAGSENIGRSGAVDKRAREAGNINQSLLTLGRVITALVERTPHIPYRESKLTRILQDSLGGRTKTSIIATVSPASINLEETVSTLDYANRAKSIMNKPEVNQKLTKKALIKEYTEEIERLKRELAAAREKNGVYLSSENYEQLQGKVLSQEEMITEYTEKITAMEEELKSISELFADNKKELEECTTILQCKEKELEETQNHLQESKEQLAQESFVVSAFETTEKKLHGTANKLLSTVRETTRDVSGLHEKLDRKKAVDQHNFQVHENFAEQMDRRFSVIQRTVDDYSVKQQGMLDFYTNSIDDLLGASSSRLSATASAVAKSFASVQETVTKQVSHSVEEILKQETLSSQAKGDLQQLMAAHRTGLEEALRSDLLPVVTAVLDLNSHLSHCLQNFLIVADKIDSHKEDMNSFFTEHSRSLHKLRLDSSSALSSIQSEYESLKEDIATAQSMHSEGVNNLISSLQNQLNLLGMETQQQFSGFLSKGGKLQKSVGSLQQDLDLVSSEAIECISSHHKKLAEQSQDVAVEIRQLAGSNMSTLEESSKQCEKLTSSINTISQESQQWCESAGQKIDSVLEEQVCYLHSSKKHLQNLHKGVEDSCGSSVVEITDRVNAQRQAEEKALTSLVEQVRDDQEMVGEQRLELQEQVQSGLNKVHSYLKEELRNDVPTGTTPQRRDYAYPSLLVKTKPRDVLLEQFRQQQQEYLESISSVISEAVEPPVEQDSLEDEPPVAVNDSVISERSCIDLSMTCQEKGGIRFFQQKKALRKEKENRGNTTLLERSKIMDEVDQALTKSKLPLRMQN
The experiment in a line: Eg5 driven microtubule gliding in vitro. The class given is biochemical. The conditions noted are these: for reversibility of inhibition (washout): monastrol 200 μM, then washout. The protocol:
FIG. 26. […] Conventional kinesin motility was not inhibited in the same assay. A. Model for spindle bipolarity. Plus-end directed motors, such as Eg5 are thought to be involved in the separation of the centrosomes and the establishment of a symmetric spindle axis. B. Inhibition of the kinesin Eg5 results in monastrol spindles. Microtubules, green; chromosomes, blue. Eg5 is depicted as homotetramer (9). C. […] After imaging Eg5 driven microtubule gliding in the presence of monastrol (200 μM), the same assay chamber was depleted of compound and the microtubule gliding recorded (Washout). […] D. Chemical structures of monastrol and DHP2.
Mitotic kinesins have been implicated in anti-parallel overlap interactions (Walczak et al., Curr. Biol. 8:903, 1998). Inhibition of the tetrameric mitotic kinesin Eg5 with antibodies induced monoasters (Sawin et al., Nature 359:540, 1992; Blangy et al., Cell 83:125, 1995; Sharp et al., J. Cell Biol. 144:125, 1999). We therefore hypothesized that Eg5 might be a target of monastrol. Like other motile kinesins, Eg5 can drive in vitro microtubule gliding (Sawin et al., Nature 359:540, 1992; Kapoor et al., Proc. Natl. Acad. Sci. USA, 1999). We tested whether monastrol inhibits Eg5 motility in vitro. […] Microtubule attachment to the Eg5 coated coverslip was maintained in the presence of monastrol (FIG. 26C). […] To test whether inhibition of the Eg5 driven microtubule gliding is specific to monastrol, we tested the closely related compound DHP2 (FIG. 26D).

In experiment [1], monastrol came in with an EC50 (effective concentration) in the cytoblot assay of 22 µM. Besides, in experiment [2], the IC50 was found to be 14 µM; the IC50 (inhibitory concentration), Eg5 driven microtubule motility stood at 14 µM; the “reversibility of inhibition (washout)” value is “reversible in vitro and in vivo”. The “reversibility of inhibition (washout)” value in experiment [2] (listed as Monastrol) was “reversible in vitro”.

What is called IC50 is the point on the concentration scale where inhibition reaches its midpoint.
